Laboratory results published in US20050209278A1, “Piperidinyl- and piperazinyl-sulfonylmethyl hydroxamic acids and their use as protease inhibitors” (priority 2002, published 2005).
Structures can show the parent of a compound that is named as a salt.

Biological target: T1, MMP-2 (Homo sapiens, UniProt P08253)
T1 construct: made in house; host or cells: MMP-2-transfected p2AHT2 cells
T1 sequence (P08253 110-660): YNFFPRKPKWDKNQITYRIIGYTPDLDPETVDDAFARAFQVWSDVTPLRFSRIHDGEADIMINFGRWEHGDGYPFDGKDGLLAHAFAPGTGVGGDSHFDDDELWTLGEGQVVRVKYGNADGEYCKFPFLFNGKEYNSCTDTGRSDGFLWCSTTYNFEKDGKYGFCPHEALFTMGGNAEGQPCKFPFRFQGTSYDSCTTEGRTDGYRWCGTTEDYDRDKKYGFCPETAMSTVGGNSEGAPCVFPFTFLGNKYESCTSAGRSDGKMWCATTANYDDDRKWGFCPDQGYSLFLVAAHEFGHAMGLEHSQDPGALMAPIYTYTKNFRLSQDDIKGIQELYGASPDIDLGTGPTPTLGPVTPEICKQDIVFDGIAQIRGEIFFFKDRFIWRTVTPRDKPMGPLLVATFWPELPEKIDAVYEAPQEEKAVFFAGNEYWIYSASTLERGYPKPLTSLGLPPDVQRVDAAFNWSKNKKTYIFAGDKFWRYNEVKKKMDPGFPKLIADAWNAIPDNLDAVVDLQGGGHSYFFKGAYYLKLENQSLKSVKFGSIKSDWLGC
Assay: In vitro MMP inhibition, IC50 determination (fluorogenic substrate I)
Format: biochemical
Conditions: values in parenthesis; 4 μM substrate I; room temperature
Protocol: Several hydroxamic acids and salts thereof were analyzed in in vitro assays to determine their ability to inhibit the MMP cleavage of peptide substrates. […] and IC50 constants were calculated from the assayed hydroxamic acid-MMP interactions.
Human recombinant MMP-1, MMP-2, MMP-9, MMP-13, and MMP-14 were used in this assay. All enzymes were prepared in Assignee's laboratories following usual laboratory procedures. Protocols for the preparation and use of these enzymes are available in the scientific literature. See, e.g., Enzyme Nomenclature (Academic Press, San Diego, Calif., 1992) (and the citations therein). See also, Freije et al., “Molecular cloning and expression of collagenase-3, a novel human matrix metalloproteinase produced by breast carcinomas,” J Biol. Chem., 269(24), 16766-16773 (1994).
The MMP-2 proenzyme was purified by gelatin Sepharose chromatography from MMP-2-transfected p2AHT2 cells provided by Dr. Gregory Goldberg of Washington University (St. Louis, Mo.).
All MMPs were activated using 4-aminophenylmercuric acetate (“APMA”, Sigma Chemical, St. Louis, Mo.) or trypsin. MMP-9 also was activated using human recombinant MMP-3 (purified in Assignee's laboratory following standard cloning and purification techniques).
Two fluorogenic, methoxycoumarin-containing polypeptide substrates were used in the MMP inhibition assays: [drawing 427] Here, “Dpa” is 3-(2,4-dinitrophenyl)-L-2,3-diaminopropionyl group, and “MCA” is 7-methoxycoumarin-4-yl acetyl. Substrate (I) was purchased from Baychem (Redwood City, Calif.), and substrate II was prepared Assignee's laboratory. Substrate I was used in the IC50 determination assays, while substrate II was used in the Ki determination assays. In the absence of MMP inhibitory activity, either substrate is cleaved at the Gly-Leu peptide bond. This cleavage separates the highly fluorogenic peptide from the 2,4-dinitrophenyl quencher, thus resulting in increase of fluorescent intensity.
The stock solutions of the assayed hydroxamic acids (or salts thereof) were prepared in 1% dimethyl sulfoxide (DMSO). These stock solutions were diluted in Buffer A (100 mM Tris-HCl, 100 mM NaCl, 10 mM CaCl2, 0.05% polyoxyethylene 23 lauryl ether, pH 7.5) to obtain solutions with different hydroxamic acid concentrations, i.e., assay solutions with different concentrations of the assayed MMP inhibitory compound. The experiment controls contained the same amount of Buffer A/DMSO as the assayed sample, but contained no hydroxamic acid (or salt thereof).
The assays from which the IC50 determinations were made were performed as follows. The MMPs were activated with either trypsin or APMA (4-aminophenylmercuric acetate, Sigma Chemical, St. Louis, Mo.). The assayed hydroxamic acid samples were incubated in Microfluor™ White Plates (Dynatech, Chantilly, Va.) and analyzed on a Perkin Elmer L550 plate reader (Norwalk, Conn.). The excitation wavelength was 328 nm, and the emission wavelength—415 nm. All samples (assayed hydroxamic acids and controls) were incubated in separate plates at room temperature in the presence of 4 μM of MMP substrate (I). As stated in the previous paragraph, samples containing varying concentrations of the same assayed hydroxamic acid were prepared. Inhibition was measured as a reduction in fluorescent intensity as a function of MMP inhibitor concentration.
The above protocols were used to determine IC50 constants and Ki values for the compounds in Examples 1-27 above. All values in Table 2 are given in nM units. The IC50 measurements are in parenthesis.

Structure (SMILES): CCCCc1ccc(N2CCN(S(=O)(=O)C3(C(=O)NO)CCN(CCOC)CC3)CC2)cc1 [Example 5, 4-{[4-(4-butylphenyl)piperazin-1-yl]sulfonyl}-N-hydroxy-1-(2-methoxyethyl)piperidine-4-carboxamide Dihydrochloride]
- IC50: < 0.1 nM

Structure (SMILES): CCCCCc1ccc(C2CCN(S(=O)(=O)C3(C(=O)NO)CCN(CCOC)CC3)CC2)cc1 [Example 15, N-hydroxy-1-(2-methoxyethyl)-4-{[4-(4-pentylpheyl)piperidin-1-yl]sulfonyl}piperidine-4-carboxamide Hydrochloride]
- IC50: 0.1 nM
